Laboratory results: patent US11932608B1, “4-((2-(2-(2-(4-hydroxyphenyl)-4,5-diphenyl-1H-imidazol-1-yl)acetyl)hydrazono)methyl)benzoic acid as an anticancer compound” (KING FAISAL UNIVERSITY, priority 2023, dated 2024)

Assays:
A549/ATCC = test: Percentage growth inhibition of in vitro subpanel tumor cell lines; assay type: cell-based; settings: Homo sapiens, 0.01 mM, Non-Small Cell Lung Cancer, read-out: Percentage growth inhibition (GI %)
Method: (§1) The anticancer activity of 4-((2-(2-(2-(4-hydroxyphenyl)-4,5-diphenyl-1H-imidazol-1-yl)acetyl)hydrazono)methyl)benzoic acid was assessed against leukemia, non-small cell lung cancer, colon cancer, central nervous system (CNS) cancer, melanoma, ovarian cancer, renal cancer, prostate cancer, and breast cancer.
(§2) Percentage growth inhibition (GI %) of in vitro subpanel tumor cell lines at 0.01 mM concentration for compound 4-((2-(2-(2-(4-hydroxyphenyl)-4,5-diphenyl-1H-imidazol-1-yl)acetyl)hydrazono)methyl)benzoic acid (Labeled as AE21 in the table) can be seen in Table 1 below.

ACHN = test: as above; assay type: cell-based; settings: Homo sapiens, 0.01 mM, Renal Cancer, read-out: Percentage growth inhibition (GI %)
Method: as §1, §2

BT-549 = test: as above; assay type: cell-based; settings: Homo sapiens; 0.01 mM; BT-549, Breast Cancer; read-out: Percentage growth inhibition (GI %)
Method: as §1, §2

CAKI-1 = test: as above; assay type: cell-based; settings: Homo sapiens; 0.01 mM; CAKI-1, Renal Cancer; read-out: Percentage growth inhibition (GI %)
Method: as §1, §2

CCRF-CEM = test: as above; assay type: cell-based; settings: Homo sapiens, 0.01 mM, Leukemia, read-out: Percentage growth inhibition (GI %)
Method: as §1, §2

DU-145 = test: as above; assay type: cell-based; settings: Homo sapiens; 0.01 mM; DU-145, Prostate Cancer; read-out: Percentage growth inhibition (GI %)
Method: as §1, §2

EKVX = test: as above; assay type: cell-based; settings: Homo sapiens, 0.01 mM, Non-Small Cell Lung Cancer, read-out: Percentage growth inhibition (GI %)
Method: as §1, §2

HCC-2998 = test: as above; assay type: cell-based; settings: Homo sapiens; 0.01 mM; HCC-2998, Colon Cancer; read-out: Percentage growth inhibition (GI %)
Method: as §1, §2

HCT-116 = test: as above; assay type: cell-based; settings: Homo sapiens; 0.01 mM; HCT-116, Colon Cancer; read-out: Percentage growth inhibition (GI %)
Method: as §1, §2

HCT-15 = test: as above; assay type: cell-based; settings: Homo sapiens; 0.01 mM; HCT-15, Colon Cancer; read-out: Percentage growth inhibition (GI %)
Method: as §1, §2

HL-60(TB) = test: as above; assay type: cell-based; settings: Homo sapiens, 0.01 mM, Leukemia, read-out: Percentage growth inhibition (GI %)
Method: as §1, §2

HOP-62 = test: as above; assay type: cell-based; settings: Homo sapiens; 0.01 mM; HOP-62, Non-Small Cell Lung Cancer; read-out: Percentage growth inhibition (GI %)
Method: as §1, §2

HS 578T = test: as above; assay type: cell-based; settings: Homo sapiens, 0.01 mM, Breast Cancer, read-out: Percentage growth inhibition (GI %)
Method: as §1, §2

HT29 = test: as above; assay type: cell-based; settings: Homo sapiens, HT-29; 0.01 mM; HT29, Colon Cancer; read-out: Percentage growth inhibition (GI %)
Method: as §1, §2

IGROV1 = test: as above; assay type: cell-based; settings: Homo sapiens, IGROV-1; 0.01 mM; IGROV1, Ovarian Cancer; read-out: Percentage growth inhibition (GI %)
Method: as §1, §2

K-562 = test: as above; assay type: cell-based; settings: Homo sapiens, K562; 0.01 mM; K-562, Leukemia; read-out: Percentage growth inhibition (GI %)
Method: as §1, §2

KM12 = test: as above; assay type: cell-based; settings: Homo sapiens; 0.01 mM; KM12, Colon Cancer; read-out: Percentage growth inhibition (GI %)
Method: as §1, §2

LOX IMVI = test: as above; assay type: cell-based; settings: Homo sapiens, 0.01 mM, Melanoma, read-out: Percentage growth inhibition (GI %)
Method: as §1, §2

M14 = test: as above; assay type: cell-based; settings: Homo sapiens; 0.01 mM; M14, Melanoma; read-out: Percentage growth inhibition (GI %)
Method: as §1, §2

MCF7 = test: as above; assay type: cell-based; settings: Homo sapiens; 0.01 mM; MCF7, Breast Cancer; read-out: Percentage growth inhibition (GI %)
Method: as §1, §2

MDA-MB-231/ATCC = test: as above; assay type: cell-based; settings: Homo sapiens, 0.01 mM, Breast Cancer, read-out: Percentage growth inhibition (GI %)
Method: as §1, §2

MDA-MB-435 = test: as above; assay type: cell-based; settings: Homo sapiens; 0.01 mM; MDA-MB-435, Melanoma; read-out: Percentage growth inhibition (GI %)
Method: as §1, §2

MOLT-4 = test: as above; assay type: cell-based; settings: Homo sapiens; 0.01 mM; MOLT-4, Leukemia; read-out: Percentage growth inhibition (GI %)
Method: as §1, §2

NCI-H226 = test: as above; assay type: cell-based; settings: Homo sapiens; 0.01 mM; NCI-H226, Non-Small Cell Lung Cancer; read-out: Percentage growth inhibition (GI %)
Method: as §1, §2

NCI-H23 = test: as above; assay type: cell-based; settings: Homo sapiens; 0.01 mM; NCI-H23, Non-Small Cell Lung Cancer; read-out: Percentage growth inhibition (GI %)
Method: as §1, §2

NCI-H460 = test: as above; assay type: cell-based; settings: Homo sapiens; 0.01 mM; NCI-H460, Non-Small Cell Lung Cancer; read-out: Percentage growth inhibition (GI %)
Method: as §1, §2

NCI-H522 = test: as above; assay type: cell-based; settings: Homo sapiens; 0.01 mM; NCI-H522, Non-Small Cell Lung Cancer; read-out: Percentage growth inhibition (GI %)
Method: as §1, §2

NCI/ADR-RES = test: as above; assay type: cell-based; settings: Homo sapiens, 0.01 mM, Ovarian Cancer, read-out: Percentage growth inhibition (GI %)
Method: as §1, §2

OVCAR-4 = test: as above; assay type: cell-based; settings: Homo sapiens; 0.01 mM; OVCAR-4, Ovarian Cancer; read-out: Percentage growth inhibition (GI %)
Method: as §1, §2

OVCAR-5 = test: as above; assay type: cell-based; settings: Homo sapiens; 0.01 mM; OVCAR-5, Ovarian Cancer; read-out: Percentage growth inhibition (GI %)
Method: as §1, §2

OVCAR-8 = test: as above; assay type: cell-based; settings: Homo sapiens; 0.01 mM; OVCAR-8, Ovarian Cancer; read-out: Percentage growth inhibition (GI %)
Method: as §1, §2

PC-3 = test: as above; assay type: cell-based; settings: Homo sapiens; 0.01 mM; PC-3, Prostate Cancer; read-out: Percentage growth inhibition (GI %)
Method: as §1, §2

RPMI-8226 = test: as above; assay type: cell-based; settings: Homo sapiens; 0.01 mM; RPMI-8226, Leukemia; read-out: Percentage growth inhibition (GI %)
Method: as §1, §2

SF-268 = test: as above; assay type: cell-based; settings: Homo sapiens; 0.01 mM; SF-268, CNS Cancer; read-out: Percentage growth inhibition (GI %)
Method: as §1, §2

SF-295 = test: as above; assay type: cell-based; settings: Homo sapiens; 0.01 mM; SF-295, CNS Cancer; read-out: Percentage growth inhibition (GI %)
Method: as §1, §2

SF-539 = test: as above; assay type: cell-based; settings: Homo sapiens; 0.01 mM; SF-539, CNS Cancer; read-out: Percentage growth inhibition (GI %)
Method: as §1, §2

SK-MEL-5 = test: as above; assay type: cell-based; settings: Homo sapiens; 0.01 mM; SK-MEL-5, Melanoma; read-out: Percentage growth inhibition (GI %)
Method: as §1, §2

SN12C = test: as above; assay type: cell-based; settings: Homo sapiens, 0.01 mM, Renal Cancer, read-out: Percentage growth inhibition (GI %)
Method: as §1, §2

SNB-75 = test: as above; assay type: cell-based; settings: Homo sapiens; 0.01 mM; SNB-75, CNS Cancer; read-out: Percentage growth inhibition (GI %)
Method: as §1, §2

SW-620 = test: as above; assay type: cell-based; settings: Homo sapiens; 0.01 mM; SW-620, Colon Cancer; read-out: Percentage growth inhibition (GI %)
Method: as §1, §2

T-47D = test: as above; assay type: cell-based; settings: Homo sapiens, T47D, 0.01 mM, Breast Cancer, read-out: Percentage growth inhibition (GI %)
Method: as §1, §2

U251 = test: as above; assay type: cell-based; settings: Homo sapiens, U-251; 0.01 mM; U251, CNS Cancer; read-out: Percentage growth inhibition (GI %)
Method: as §1, §2

UACC-257 = test: as above; assay type: cell-based; settings: Homo sapiens; 0.01 mM; UACC-257, Melanoma; read-out: Percentage growth inhibition (GI %)
Method: as §1, §2

UO-31 = test: as above; assay type: cell-based; settings: Homo sapiens; 0.01 mM; UO-31, Renal Cancer; read-out: Percentage growth inhibition (GI %)
Method: as §1, §2

For `O=C(Cn1c(-c2ccc(O)cc2)nc(-c2ccccc2)c1-c1ccccc1)N/N=C/c1ccc(C(=O)O)cc1` [AE21, 4-((2-(2-(2-(4-hydroxyphenyl)-4,5-diphenyl-1H-imidazol-1-yl)acetyl)hydrazono)methyl)benzoic acid], the inhibition at 10 µM (A549/ATCC) was 64.9%, the inhibition at 10 µM (ACHN) was 57.2% and the inhibition at 10 µM (BT-549) was 11.9%. For the same molecule, the inhibition at 10 µM (CAKI-1) was 8.34%, the inhibition at 10 µM (CCRF-CEM) was 78.4% and the inhibition at 10 µM (DU-145) was 43%. It also gave an inhibition at 10 µM (EKVX) of 32.1%, an inhibition at 10 µM (HCC-2998) of 6.33% and an inhibition at 10 µM (HCT-116) of 50.7%. For the same molecule, the inhibition at 10 µM (HCT-15) was 51.7%, the inhibition at 10 µM (HL-60(TB)) was 53.6% and the inhibition at 10 µM (HOP-62) was 7.6%. The inhibition at 10 µM (HS 578T) was 22.5%, the inhibition at 10 µM (HT29) was 55.4% and the inhibition at 10 µM (IGROV1) was 4.51%. For the same molecule, the inhibition at 10 µM (K-562) was 44.7%, the inhibition at 10 µM (KM12) was 16.2% and the inhibition at 10 µM (LOX IMVI) was 33.4%. The inhibition at 10 µM (M14) was 16.5%, the inhibition at 10 µM (MCF7) was 81.1% and the inhibition at 10 µM (MDA-MB-231/ATCC) was 25.6%. For the same molecule, the inhibition at 10 µM (MDA-MB-435) was 16.6%, the inhibition at 10 µM (MOLT-4) was 70.1% and the inhibition at 10 µM (NCI-H226) was 11.4%. It also gave an inhibition at 10 µM (NCI-H23) of 4.14%, an inhibition at 10 µM (NCI-H460) of 82.4% and an inhibition at 10 µM (NCI-H522) of 35.3%. For the same molecule, the inhibition at 10 µM (NCI/ADR-RES) was 2.67%, the inhibition at 10 µM (OVCAR-4) was 15% and the inhibition at 10 µM (OVCAR-5) was 11.7%. For the same molecule, the inhibition at 10 µM (OVCAR-8) was 49%, the inhibition at 10 µM (PC-3) was 43.2% and the inhibition at 10 µM (RPMI-8226) was 21.4%. It also gave an inhibition at 10 µM (SF-268) of 11.7%, an inhibition at 10 µM (SF-295) of 29.4% and an inhibition at 10 µM (SF-539) of 3.59%. The inhibition at 10 µM (SK-MEL-5) was 8.04%, the inhibition at 10 µM (SN12C) was 47.8% and the inhibition at 10 µM (SNB-75) was 13.8%. For the same molecule, the inhibition at 10 µM (SW-620) was 67.6%, the inhibition at 10 µM (T-47D) was 22.7% and the inhibition at 10 µM (U251) was 48.5%. For the same molecule, the inhibition at 10 µM (UACC-257) was 2.54%, the inhibition at 10 µM (UO-31) was 12.8% and the melting point was 220 to 222 °C.
